In paper PMC4454357 (Archives of biochemistry and biophysics, 2015):
Read-outs that look alike come from different tables or passages of the source.

Legend:
AhR [1] = biological target: T1, AhR (Rattus norvegicus, UniProt P41738); assay: AhR-dependent luciferase reporter gene assay, rat hepatoma H4L7.5c2
T1 sequence (P41738 10-853): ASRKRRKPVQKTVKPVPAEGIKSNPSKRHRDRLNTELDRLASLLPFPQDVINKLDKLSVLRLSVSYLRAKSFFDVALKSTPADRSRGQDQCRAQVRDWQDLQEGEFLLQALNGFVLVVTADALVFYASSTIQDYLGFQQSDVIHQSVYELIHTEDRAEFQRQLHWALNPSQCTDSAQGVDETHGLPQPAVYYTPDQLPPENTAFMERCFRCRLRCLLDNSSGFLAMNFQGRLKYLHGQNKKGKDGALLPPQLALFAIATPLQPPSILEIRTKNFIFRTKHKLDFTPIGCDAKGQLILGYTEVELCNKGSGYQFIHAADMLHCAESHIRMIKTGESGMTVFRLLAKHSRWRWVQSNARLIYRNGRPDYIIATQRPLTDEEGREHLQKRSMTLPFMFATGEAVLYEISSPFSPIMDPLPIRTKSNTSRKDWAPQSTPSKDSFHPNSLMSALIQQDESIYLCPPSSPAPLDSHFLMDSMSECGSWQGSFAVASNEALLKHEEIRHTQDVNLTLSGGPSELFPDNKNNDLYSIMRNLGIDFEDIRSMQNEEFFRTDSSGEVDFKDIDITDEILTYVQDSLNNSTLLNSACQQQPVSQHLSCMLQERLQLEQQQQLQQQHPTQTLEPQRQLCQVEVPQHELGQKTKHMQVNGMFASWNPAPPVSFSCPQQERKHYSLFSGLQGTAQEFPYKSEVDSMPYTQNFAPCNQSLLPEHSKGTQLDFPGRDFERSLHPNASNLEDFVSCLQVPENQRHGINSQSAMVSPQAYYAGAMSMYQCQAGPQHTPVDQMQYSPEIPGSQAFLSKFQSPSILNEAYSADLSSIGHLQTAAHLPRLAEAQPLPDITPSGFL

AhR [2] = biological target: T2, AhR (Cavia porcellus, UniProt Q6J287)
T2 sequence (Q6J287 1-846): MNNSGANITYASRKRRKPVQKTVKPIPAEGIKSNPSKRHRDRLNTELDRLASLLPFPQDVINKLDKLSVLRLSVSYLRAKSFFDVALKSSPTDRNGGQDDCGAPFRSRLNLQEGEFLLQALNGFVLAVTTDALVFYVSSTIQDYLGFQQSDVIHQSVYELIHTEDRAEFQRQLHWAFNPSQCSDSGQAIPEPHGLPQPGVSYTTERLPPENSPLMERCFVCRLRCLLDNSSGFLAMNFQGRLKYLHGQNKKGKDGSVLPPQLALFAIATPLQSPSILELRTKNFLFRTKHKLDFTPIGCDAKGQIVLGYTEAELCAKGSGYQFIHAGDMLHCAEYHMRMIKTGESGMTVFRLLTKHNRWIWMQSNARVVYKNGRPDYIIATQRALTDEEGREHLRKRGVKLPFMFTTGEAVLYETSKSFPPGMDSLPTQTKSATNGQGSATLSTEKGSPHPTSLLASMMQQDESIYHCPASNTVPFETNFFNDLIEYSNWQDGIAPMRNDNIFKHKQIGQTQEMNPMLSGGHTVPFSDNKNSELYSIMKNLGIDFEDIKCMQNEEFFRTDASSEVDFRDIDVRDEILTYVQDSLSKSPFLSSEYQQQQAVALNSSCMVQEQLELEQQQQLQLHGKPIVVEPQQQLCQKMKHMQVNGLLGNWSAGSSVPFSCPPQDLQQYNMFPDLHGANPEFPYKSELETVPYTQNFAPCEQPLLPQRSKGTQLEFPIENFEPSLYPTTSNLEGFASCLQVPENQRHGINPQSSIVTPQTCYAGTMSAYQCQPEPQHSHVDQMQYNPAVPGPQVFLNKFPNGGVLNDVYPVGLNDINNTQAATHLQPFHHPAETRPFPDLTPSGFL

[3] = biological target: T3, guinea pig hepatic cytosolic AhR (Cavia porcellus, UniProt Q6J287); assay: [3H]TCDD competitive ligand binding, hydroxyapatite binding assay; conditions: 2 nM [3H]TCDD, 1 h, room temperature, guinea pig hepatic cytosol
T3 sequence (Q6J287 1-846): T2 sequence (Q6J287 1-846)

AhR [4] = biological target: T4, AhR (Homo sapiens, UniProt P35869); assay: AhR-dependent luciferase reporter gene assay, human hepatoma HG2L7.5c1; conditions: for difference in relative potency among the cell lines studied: human, mouse, rat and guinea pig cell lines compared
T4 sequence (P35869 11-848): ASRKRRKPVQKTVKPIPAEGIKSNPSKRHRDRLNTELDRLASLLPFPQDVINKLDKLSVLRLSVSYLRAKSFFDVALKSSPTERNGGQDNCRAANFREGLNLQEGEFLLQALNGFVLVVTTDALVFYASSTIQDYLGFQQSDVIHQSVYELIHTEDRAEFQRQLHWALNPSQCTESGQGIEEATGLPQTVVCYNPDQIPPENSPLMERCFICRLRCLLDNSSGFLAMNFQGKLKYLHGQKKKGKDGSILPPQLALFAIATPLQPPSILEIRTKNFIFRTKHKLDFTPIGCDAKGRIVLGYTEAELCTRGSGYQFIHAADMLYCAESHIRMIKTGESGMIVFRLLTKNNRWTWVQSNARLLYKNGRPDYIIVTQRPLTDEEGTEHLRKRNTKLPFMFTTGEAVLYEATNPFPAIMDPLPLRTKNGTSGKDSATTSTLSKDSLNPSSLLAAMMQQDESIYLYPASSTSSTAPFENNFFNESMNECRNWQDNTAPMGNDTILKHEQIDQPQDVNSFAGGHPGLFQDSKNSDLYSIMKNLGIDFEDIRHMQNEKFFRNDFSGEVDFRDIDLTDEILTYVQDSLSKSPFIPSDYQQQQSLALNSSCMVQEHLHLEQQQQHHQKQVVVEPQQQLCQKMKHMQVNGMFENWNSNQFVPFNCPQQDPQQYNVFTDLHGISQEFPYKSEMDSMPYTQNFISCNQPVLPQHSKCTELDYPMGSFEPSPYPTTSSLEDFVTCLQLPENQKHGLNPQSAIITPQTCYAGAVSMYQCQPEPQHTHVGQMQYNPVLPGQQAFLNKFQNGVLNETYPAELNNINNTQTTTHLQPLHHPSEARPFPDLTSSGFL

AhR [5] = assay: AhR-dependent luciferase reporter gene assay, mouse hepatoma H1L7.5c3; conditions: EC50 mouse versus rat cell lines
AhR [6] = biological target: AhR (Mus musculus, UniProt P30561); assay: as above; conditions: mouse cell line
AhR [7] = biological target: T2, AhR; remark: listed apart in the source
AhR [8] = biological target: T1, AhR
AhR [9] = biological target: T4, AhR
[10] = read-out: Relative potency (EC50) as activators of AhR-dependent reporter gene expression, Human cell line HG2L7.5c1, 6 h, mean of triplicate concentration response analysis

Sequence of AhR (Mus musculus, UniProt P30561) (P30561 10-848): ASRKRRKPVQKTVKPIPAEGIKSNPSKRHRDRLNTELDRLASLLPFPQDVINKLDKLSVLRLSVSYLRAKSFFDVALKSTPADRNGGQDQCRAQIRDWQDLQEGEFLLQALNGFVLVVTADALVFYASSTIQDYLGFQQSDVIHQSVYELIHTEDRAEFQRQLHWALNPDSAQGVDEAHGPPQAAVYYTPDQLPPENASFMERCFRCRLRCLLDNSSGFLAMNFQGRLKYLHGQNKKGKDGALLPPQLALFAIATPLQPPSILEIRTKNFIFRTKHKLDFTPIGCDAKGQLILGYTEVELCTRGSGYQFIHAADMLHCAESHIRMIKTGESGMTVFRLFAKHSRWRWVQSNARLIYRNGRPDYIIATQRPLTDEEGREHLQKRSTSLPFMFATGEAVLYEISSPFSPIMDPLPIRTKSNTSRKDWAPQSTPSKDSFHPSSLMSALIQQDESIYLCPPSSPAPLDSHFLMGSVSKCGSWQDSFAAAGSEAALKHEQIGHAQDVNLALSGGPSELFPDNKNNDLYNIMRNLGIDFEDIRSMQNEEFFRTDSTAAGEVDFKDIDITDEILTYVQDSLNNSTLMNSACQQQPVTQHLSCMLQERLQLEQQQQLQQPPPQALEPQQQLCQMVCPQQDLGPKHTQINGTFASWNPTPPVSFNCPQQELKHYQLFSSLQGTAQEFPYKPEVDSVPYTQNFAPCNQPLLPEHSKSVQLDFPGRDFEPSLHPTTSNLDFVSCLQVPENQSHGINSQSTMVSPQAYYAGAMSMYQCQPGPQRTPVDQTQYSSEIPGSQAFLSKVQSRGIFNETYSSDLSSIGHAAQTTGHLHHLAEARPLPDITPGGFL

O=Cc1c2[nH]c3ccccc3c2cc2[nH]c3ccccc3c12 [FICZ, 6-formyl-indolo[3,2-b]carbazole] showed an EC50 (AhR [1]) of 0.078 nM.

For O=C1Nc2ccccc2/C1=C1/Nc2ccccc2C1=O [Indirubin, indirubin], the EC50 (AhR [2]) was 0.95 nM and the EC50 (AhR [1]) was 0.94 nM.

In the case of pityriazepin, the “displacement of [3H]TCDD” value [3] is reported as “displaced [^3H]TCDD from guinea pig hepatic cytosol in a concentration-dependent manner”, the “difference in relative potency among the cell lines studied” value (AhR [4]) is reported as “lowest degree of difference” and the EC50 (AhR [4]; [10]) is reported as 5 nM.

For indolo[3,2-b]carbazole [ICZ], the “difference in EC50 between the mouse and rat cell lines” value (AhR [5]) was ~ 109 fold, the EC50 (AhR [6]) was 0.009 nM and the EC50 (AhR [4]; [10]) was 0.6 nM.

For O=C1c2ccccc2-n2c1nc1ccccc1c2=O [Tryptanthrin, tryptanthrin], the EC50 (AhR [2]) was 181 nM and the EC50 (AhR [1]) was 946 nM.

Work on O=Cc1c(Cc2c[nH]c3ccccc23)[nH]c2ccccc12 [Malassezin, malassezin] yielded an EC50 (AhR [7]) of 276 nM, an EC50 (AhR [8]) of 56 nM and an EC50 (AhR [9]) of 11.1 nM. The “relative inducing potency difference between the human and mouse cell lines” value (AhR [4]; EC50 human versus mouse hepatoma cells) was ~ 26 fold.

For Clc1cc2c(cc1Cl)Oc1cc(Cl)c(Cl)cc1O2 [TCDD, 2,3,7,8-tetrachlorodibenzo-p-dioxin, reference compound], the EC50 (AhR [2]) was 0.1 nM, the EC50 (AhR [1]) was 0.1 nM and the EC50 (AhR [4]) was 0.53 nM.

O=C(c1c[nH]c2ccccc12)c1nccc2c1[nH]c1ccccc12 [Pityriacitrin, pityriacitrin] was tested, and the EC50 (AhR [7]) was 4.3 nM, the EC50 (AhR [8]) was 4.3 nM and the EC50 (AhR [9]) was 4.9 nM. The “difference in relative potency among the cell lines studied” value (AhR [4]) was “lowest degree of difference”.
